Experimental data: the supplement of paper PMC13380429

Columns and labels:
Conditions in all cases: 72 h
Calu-3 [1] = assay: relative viability EC50 (midpoint between 100% and the lowest measured viability); higher = less toxic
HepG2 [2] = assay: as above
Caco-2 [3] = assay: as above
U2OS [4] = assay: as above
Vero E6 [5] = assay: as above
Calu-3 [6] = assay: drug sensitivity score (DSS) for viability; higher = more toxic; extreme values may be limits of the assay
HepG2 [7] = assay: as above
Caco-2 [8] = assay: as above
U2OS [9] = assay: as above
Vero E6 [10] = assay: as above
Calu-3 [11] = assay: cell viability relative to DMSO; higher = less toxic
HepG2 [12] = assay: as above
Caco-2 [13] = assay: as above
U2OS [14] = assay: as above
Vero E6 [15] = assay: as above

Row | Compound | relative viability EC50 (Calu-3 [1]) | relative viability EC50 (HepG2 [2]) | relative viability EC50 (Caco-2 [3]) | relative viability EC50 (U2OS [4]) | relative viability EC50 (Vero E6 [5]) | drug sensitivity score (Calu-3 [6]) | drug sensitivity score (HepG2 [7]) | drug sensitivity score (Caco-2 [8]) | drug sensitivity score (U2OS [9]) | drug sensitivity score (Vero E6 [10]) | cell viability (Calu-3 [11]; 1 nM) | cell viability (Calu-3 [11]; 10 nM) | cell viability (Calu-3 [11]; 100 nM) | cell viability (Calu-3 [11]; 1000 nM) | cell viability (Calu-3 [11]; 10000 nM) | cell viability (HepG2 [12]; 1 nM) | cell viability (HepG2 [12]; 10 nM) | cell viability (HepG2 [12]; 100 nM) | cell viability (HepG2 [12]; 1000 nM) | cell viability (HepG2 [12]; 10000 nM) | cell viability (Caco-2 [13]; 1 nM) | cell viability (Caco-2 [13]; 10 nM) | cell viability (Caco-2 [13]; 100 nM) | cell viability (Caco-2 [13]; 1000 nM) | cell viability (Caco-2 [13]; 10000 nM) | cell viability (U2OS [14]; 1 nM) | cell viability (U2OS [14]; 10 nM) | cell viability (U2OS [14]; 100 nM) | cell viability (U2OS [14]; 1000 nM) | cell viability (U2OS [14]; 10000 nM) | cell viability (Vero E6 [15]; 1 nM) | cell viability (Vero E6 [15]; 10 nM) | cell viability (Vero E6 [15]; 100 nM) | cell viability (Vero E6 [15]; 1000 nM) | cell viability (Vero E6 [15]; 10000 nM)
1 | CN1CC(O)C2=C/C(=N/NC(N)=O)C(=O)C=C21 (stereo not given) [carbazochrome] | > 10 µM | > 10 µM | > 10 µM | > 10 µM | > 10 µM | 0 | 0 | 0 | 0 | 0 | 105% | 95.3% | 103% | 93.9% | 93.4% | 98.8% | 97% | 92.2% | 97.1% | 93.1% | 93.3% | 88.5% | 91.5% | 102% | 109% | 101% | 97.6% | 98.2% | 92.7% | 101% | 101% | 97% | 93.9% | 96.8% | 103%
2 | Cc1oc(=O)oc1CN1CCN(c2cc3c(cc2F)c(=O)c(C(=O)O)c2n3C(C)S2)CC1 (stereo not given) [prulifloxacin] | > 10 µM | > 10 µM | > 10 µM | > 10 µM | > 10 µM | 0 | 0 | 0 | 0 | 0 | 104% | 95.8% | 99.4% | 96.2% | 97.3% | 107% | 112% | 110% | 106% | 97.2% | 94.8% | 91.6% | 120% | 103% | 97.8% | 95.8% | 99.8% | 100% | 95.7% | 100% | 102% | 111% | 115% | 94.5% | 97.3%
3 | C=CC1=C(C)C2=CC3=NC(=C(CC(=O)O)C4=NC(=C(C)C4=C(O)O)C=c4[nH]c(c(C)c4CC)=CC1=N2)C(CCC(=O)O)C3C (stereo not given) [chlorophyllin] | > 10 µM | > 10 µM | > 10 µM | > 10 µM | > 10 µM | 0 | 0 | 0 | 0 | 0 | 111% | 89.7% | 93.2% | 101% | 116% | 97.3% | 106% | 115% | 112% | 106% | 102% | 104% | 96.6% | 91% | 91.4% | 97.7% | 96.1% | 100% | 96% | 103% | 100% | 99.9% | 95.7% | 96.9% | 92.6%
4 | CNC(=N)NC(=O)Nc1c(C)cccc1C [lidamidine] | > 10 µM | > 10 µM | > 10 µM | > 10 µM | > 10 µM | 0 | 0 | 0 | 0 | 0 | 103% | 102% | 96.2% | 88.7% | 104% | 101% | 89.3% | 106% | 104% | 108% | 90.4% | 99% | 91.9% | 95.3% | 92.5% | 98.6% | 100% | 97.7% | 99.5% | 100% | 99.6% | 96% | 97.7% | 102% | 105%
5 | CS(=O)(=O)c1ccc(C2=C(c3ccccc3)C(=O)OC2)cc1 [rofecoxib] | > 10 µM | > 10 µM | > 10 µM | > 10 µM | > 10 µM | 0 | 0 | 0 | 0 | 0 | 99.1% | 100% | 98% | 101% | 102% | 95.7% | 104% | 95.2% | 103% | 101% | 96.4% | 93.8% | 100% | 91.1% | 92.7% | 101% | 98.9% | 100% | 98.8% | 99.5% | 93.6% | 105% | 88.4% | 95.3% | 102%
6 | O=C(O)c1cc(O)c(O)c(O)c1 [gallic-acid] | > 10 µM | > 10 µM | > 10 µM | > 10 µM | > 10 µM | 0 | 1.6 | 0 | 0 | 0 | 85.4% | 93% | 96.4% | 102% | 102% | 100% | 94.8% | 102% | 91.4% | 79.6% | 104% | 89.2% | 109% | 96.7% | 101% | 99.4% | 94.8% | 96.5% | 97.3% | 106% | 99.1% | 92.4% | 95% | 106% | 102%
7 | COCCNC(=O)COc1ccc(OCCNC[C@H](O)COc2ccccc2)cc1 [ZD-7114] | > 10 µM | > 10 µM | > 10 µM | > 10 µM | > 10 µM | 0 | 0 | 0 | 0 | 0 | 99.1% | 97.2% | 106% | 90% | 108% | 100% | 106% | 93.7% | 104% | 97.1% | 95.5% | 95.1% | 94.7% | 86.2% | 103% | 98.4% | 94.5% | 104% | 102% | 102% | 103% | 101% | 96.7% | 104% | 96.5%
8 | CC(=O)OCC1=C(C(=O)O)N2C(=O)[C@@H](NC(=O)CCCC(N)C(=O)O)C2SC1 (stereo not given in full) [cephalosporin-c-zn] | > 10 µM | > 10 µM | > 10 µM | > 10 µM | > 10 µM | 0 | 0 | 0 | 0 | 0 | 93.2% | 104% | 91.5% | 97.7% | 99.5% | 103% | 88.2% | 81.8% | 112% | 102% | 88.7% | 78% | 94.1% | 89.6% | 99.2% | 97.1% | 98.1% | 94.9% | 92.7% | 104% | 93.6% | 87.4% | 90.9% | 100% | 104%
9 | CN(C)CCOc1ccc(-c2nc(-c3ccncc3)c(-c3ccc4c(c3)CC/C4=N\O)[nH]2)cc1 | > 10 µM | 0.748 µM | > 10 µM | > 10 µM | > 10 µM | 0 | 12.6 | 0 | 0 | 0 | 99.6% | 94.5% | 114% | 115% | 117% | 110% | 102% | 96.8% | 39.8% | 3.5% | 106% | 103% | 99.1% | 101% | 98.6% | 93% | 108% | 99.6% | 116% | 114% | 102% | 98.5% | 105% | 112% | 113%
10 | CC(N)CCCC(C)(C)O (stereo not given) [heptaminol] | > 10 µM | > 10 µM | > 10 µM | > 10 µM | > 10 µM | 0 | 0 | 0 | 0 | 0 | 94.4% | 144% | 103% | 101% | 94.2% | 106% | 96.3% | 102% | 95.6% | 104% | 90.3% | 91.7% | 96.7% | 107% | 106% | 95.1% | 97.7% | 98.1% | 103% | 105% | 95.1% | 95.7% | 97.3% | 94.3% | 104%
11 | O=C(O)[C@@H]1C[C@@H](O)CN1 [L-hydroxyproline] | > 10 µM | > 10 µM | > 10 µM | > 10 µM | > 10 µM | 0 | 0 | 0 | 0 | 0 | 95% | 94.4% | 93.5% | 96.9% | 106% | 101% | 112% | 99.7% | 108% | 90.8% | 80.5% | 92.4% | 100% | 96.1% | 95.8% | 95.9% | 102% | 100% | 95.2% | 102% | 104% | 114% | 99.5% | 105% | 94.4%
12 | O=C(CCBr)N1CC[N+]2(CC1)CC[N+]1(CCN(C(=O)CCBr)CC1)CC2 [spirobromin] | > 10 µM | > 10 µM | > 10 µM | > 10 µM | > 10 µM | 0 | 0 | 0 | 0 | 0 | 110% | 100% | 94.7% | 110% | 100% | 91.7% | 91.5% | 96.6% | 106% | 96.4% | 103% | 87% | 94.2% | 109% | 108% | 96.4% | 95.2% | 97.3% | 99.4% | 97.7% | 91.2% | 101% | 96.4% | 91.5% | 106%
13 | Cc1cccc(N(C)C(=S)Oc2ccc3ccccc3c2)c1 [tolnaftate] | > 10 µM | > 10 µM | > 10 µM | > 10 µM | > 10 µM | 0 | 0 | 0 | 0 | 0.1 | 98% | 90% | 94% | 94.6% | 101% | 100% | 100% | 91.6% | 97.9% | 93.8% | 93.3% | 99.7% | 94% | 94.8% | 96.8% | 99.1% | 99.2% | 94.9% | 100% | 93.3% | 101% | 102% | 98.5% | 91.8% | 88.6%
14 | CO/N=C1/C[C@@H](C(=O)NC[C@@H](O)c2ccccc2)N(C(=O)c2ccc(-c3ccccc3C)cc2)C1 [OT-R-antagonist-1] | > 10 µM | > 10 µM | > 10 µM | > 10 µM | > 10 µM | 0 | 0 | 0 | 0 | 0 | 96.2% | 106% | 106% | 110% | 99.4% | 102% | 97.6% | 99.4% | 97.7% | 98.5% | 89% | 99% | 99.1% | 86.6% | 98.3% | 96.9% | 99.8% | 94.5% | 99.1% | 100% | 97% | 90.8% | 95.2% | 84.8% | 103%
